The results in this text go back to US10085449B2, “N-[1-((6-chloropyridin-3-yl)methyl)pyridin-2(1H)-ylidene]-2,2,2- trifluoroacetamide for control of agricultural/horticultural pests” (priority 2010, dated 2018).

Structures are written as SMILES. Read-outs that look alike come from different tables or passages of the source.

What all share (format): in vivo
Data set [1] relates to brown rice planthopper having a low susceptibility to insecticides. Also on record: key to Brown rice planthopper, Kumamoto low susceptibility (rice soil drenching), effect: mortality %, dead/(live+dead) ×100. The note with it: rice soil drenching, 0.05 mg/pot. The protocol:
Rice seedlings grown in pots were subjected to soil drenching treatment with solutions of the inventive compounds at a predetermined concentration prepared to 10% acetone/water. Three days after treatment, ten second-instar brown rice planthopper larvae having a low susceptibility to insecticides were released onto each seedling. The seedlings and insects were then held in an incubation chamber at 25° C. (16-hour period of light, 8-hour dark period). Three days after released, the numbers of live and dead insects were counted, and the mortality was calculated from the following formula. The test was carried out as two replications. Mortality (%)=[number of dead insects/(number of live insects+number of dead insects)]×100
The pests used in this test were insects that had been raised indoors for successive generations over a long period of time (susceptible line), and insects that had been raised indoors for successive generations after being collected (I) in 2007 within Kumamoto Prefecture and (II) in 2005 within Fukuoka Prefecture (field-collected lines).

Data set [2] deals with small brown planthopper. The data set is described as follows: whole plant or invertebrate. The settings on record: Laodelphax striatellus, 72 h; for pest or weed control at 0.01 mg/pot: 0.01 mg/pot (Table 13); for pest or weed control at 0.05 mg/pot: 0.05 mg/pot (Table 13). The protocol:
(§1) Rice seedlings grown in pots were subjected to soil drenching treatment with solutions of the inventive compounds at a predetermined concentration prepared to 10% acetone/water. Three days following treatment, ten second-instar small brown planthopper larvae were released onto each seedling. The treated seedlings and larvae were then held in an incubation chamber at 25° C. (16-hour period of light, 8-hour dark period). Three days after released, the numbers of live and dead insects were counted, and the mortality was calculated from the following formula. The test was carried out as two replications. Mortality (%)=[number of dead insects/(number of live insects+number of dead insects)]×100

Data set [3] relates to rice leaf bug. The data set is described as follows: whole plant or invertebrate. The note with it: foliar, 72 h. On the procedure: The treated seedlings were air-dried, then each was placed in a glass cylinder and two second-instar rice leaf bug larvae were released within the same glass cylinder. Following release of the insects, the tube was capped and held in an incubation chamber at 25° C. (16-hour period of light, 8-hour dark period). […] Three days after released, the numbers of live and dead insects were counted, and the mortality was calculated from the following formula. Mortality (%)=[number of dead insects/(number of live insects+number of dead insects)]×100

In data set [4] the test system is cotton aphid. Briefly: whole plant or invertebrate. The note with it: Aphis gossypii, foliar. On the procedure: (§2) Leaf discs 2.0 cm in diameter were cut from cucumber plants grown in pots, and these were sprayed with solutions of the inventive compounds at a predetermined concentration prepared to 50% acetone/water (containing 0.05% Tween 20). The treated leaf discs were air dried, following which first-instar larvae were released onto the discs. The leaf discs and larvae were then held in an incubation chamber at 25° C. (16-hour period of light, 8-hour dark period). Three days after released, the numbers of live and dead insects were counted, and the mortality was calculated from the following formula. This was a two-replication test. Mortality (%)=[number of dead insects/(number of live insects+number of dead insects)]×100

Data set [5] relates to common cutworm. The data set is described as follows: whole plant or invertebrate. The note with it: for Insecticidal effects (mortality), common cutworm third-instar larvae: foliar application, 500 ppm. The protocol: as §2, with “5.0” for “2.0”, “cabbage” for “cucumber”, “third-instar” for “first-instar”
For data set [6], the system named is western flower thrips. Briefly: whole plant or invertebrate. The settings on record: Frankliniella occidentalis, foliar. The protocol:
as §2, with “2.8” for “2.0”, “bean” for “cucumber”

For data set [7], the system named is diamondback moth. Briefly: whole plant or invertebrate. The note with it: Plutella xylostella, foliar. On the procedure:
as §2, with “5.0” for “2.0”, “cabbage” for “cucumber”, “second-instar” for “first-instar”

Data set [8] has as its system small brown planthopper. Briefly: whole plant or invertebrate. The note with it: Laodelphax striatellus, in Triticum aestivum, 96 h. The protocol:
as §1, with “Wheat seedling roots 48 hours after sowing” for “Rice seedlings grown in pots”, “treated” for “subjected to soil drenching treatment”, “After allowing the roots to absorb the chemical for 72 hours,” for “Three days following treatment,”, “Four” for “Three”

The mark [9] stands for this setting: rice soil drenching, read-out: Small brown planthopper (rice soil drenching), effect.
Where [10] appears, read: soil, read-out: Insecticidal effects (mortality), small brown planthopper second-instar larvae.
The mark [11] stands for this setting: read-out: Insecticidal effects (mortality), western flower thrips first-instar larvae.
[12] abbreviates: read-out: Insecticidal effects (mortality), diamondback moth second-instar larvae.
Where [13] appears, read: read-out: Insecticidal effects (mortality), small brown planthopper second-instar larvae.
Where [14] appears, read: read-out: Insecticidal effects (mortality), cotton aphid first-instar larvae.

Consider `O=C(/N=C1\NCCN1Cc1ccc(Cl)nc1)C(F)(F)F` [Comparative Example 7, N-[1-((6-chloropyridin-3-yl)methyl)imidazolidin-2-ylidene]-2,2,2-trifluoroacetamide, reference compound], for which the “Brown rice planthopper, Kumamoto low susceptibility (rice soil drenching), effect” value in data set [1] was determined as 20. In data set [2] (setting [9]), the pest or weed control at 0.01 mg/pot is 5% and the pest or weed control at 0.05 mg/pot amounted to 63%.
As for `O=C(CCl)N=c1ccccn1Cc1ccc(Cl)nc1` [Compound 236, 2-chloro-N-[1-((6-chloropyridin-3-yl)methyl)pyridin-2(1H)-ylidene]acetamide], the mortality at 50 ppm in data set [3] was at least 80%. In data set [4] (in Cucumis sativus, 72 h), this molecule registered a mortality at 20 ppm of at least 80% and a mortality at 100 ppm of at least 80%.
Molecule `O=C(N=c1ccccn1Cc1ccc(Cl)nc1)C(F)(F)Cl` [Compound 239, 2-chloro-N-[1-((6-chloropyridin-3-yl)methyl)pyridin-2(1H)-ylidene]-2,2-difluoroacetamide] showed a mortality at 50 ppm in data set [3] of at least 80%. In addition, in data set [5], the “Insecticidal effects (mortality), common cutworm third-instar larvae” value (shortened to “Insecticidal effects (mortality)”) is listed as 90. In data set [5] (foliar, 72 h), this molecule returned a mortality at 500 ppm of at least 80%. Besides, in data set [2] (rice soil drenching, 0.005 mg/pot (Table 13), read-out: Small brown planthopper (rice soil drenching), effect), the pest or weed control at 0.005 mg/pot is 30%. In data set [2] (setting [9]), the pest or weed control at 0.01 mg/pot was found to be 80% and the pest or weed control at 0.05 mg/pot was 100%. The same molecule returned a mortality at 0.05 mg/seedling in data set [2] (soil) of at least 80%. In data set [2] (setting [10]), the mortality at 0.005 mg/pot came out at 30%, the mortality at 0.01 mg/pot worked out at 80% and the mortality at 0.05 mg/pot turned out to be 100%. For the same molecule, the mortality at 500 ppm in data set [6] (setting [11]) is 40%. In data set [7] (setting [12]), the mortality at 20 ppm is 100%, the mortality at 100 ppm came out at 100% and the mortality at 500 ppm was 100%. In data set [7] (in Brassica oleracea, 72 h), this molecule returned a mortality at 100 ppm of at least 80% and a mortality at 500 ppm of at least 80%. Further, the mortality at 20 µg/seedling in data set [8] was at least 80%. Moreover, in data set [8] (setting [13]), the mortality at 0.25 mg/seedling is 100%, the mortality at 0.5 mg/seedling was 100%, the mortality at 2 mg/seedling turned out to be 100% and the mortality at 20 mg/seedling is 100%. Moreover, in data set [4] (setting [14]), the mortality at 20 ppm stood at 100%, the mortality at 100 ppm worked out at 100% and the mortality at 500 ppm is 100%. Further, in data set [4] (in Cucumis sativus, 72 h), the mortality at 20 ppm was at least 80%, the mortality at 100 ppm was at least 80% and the mortality at 500 ppm was at least 80%.
Molecule `O=C(N=c1ccccn1Cc1ccc(Cl)nc1)C(F)(F)C(F)(F)F` [Compound 242, N-[1-((6-chloropyridin-3-yl)methyl)pyridin-2(1H)-ylidene]-2,2,3,3,3-pentafluoropropanamide] gave a mortality at 50 ppm in data set [3] of at least 80%. Also, the “Insecticidal effects (mortality)” value in data set [5] turned out to be 60. Moreover, in data set [2] (setting [9]), the pest or weed control at 0.05 mg/pot turned out to be 100%. The mortality at 0.05 mg/seedling in data set [2] (soil) is at least 80%. The mortality at 0.05 mg/pot in data set [2] (setting [10]) amounted to 100%. The same molecule came in with a mortality at 500 ppm in data set [6] (72 h) of at least 80%. Further, in data set [6] (setting [11]), the mortality at 100 ppm came to 76% and the mortality at 500 ppm came to 100%. In data set [7] (setting [12]), the mortality at 100 ppm was 100% and the mortality at 500 ppm amounted to 100%. Further, in data set [7] (in Brassica oleracea, 72 h), the mortality at 100 ppm was at least 80% and the mortality at 500 ppm is at least 80%. Also, in data set [8] (setting [13]), the mortality at 0.5 mg/seedling worked out at 100%, the mortality at 2 mg/seedling stood at 100% and the mortality at 20 mg/seedling was found to be 100%. In data set [4] (setting [14]), the mortality at 1.25 ppm turned out to be 35%, the mortality at 5 ppm came to 80%, the mortality at 20 ppm turned out to be 100% and the mortality at 100 ppm was 100%. Further, in data set [4] (in Cucumis sativus, 72 h), the mortality at 20 ppm is at least 80% and the mortality at 100 ppm is at least 80%.
Consider `O=C(N=c1ccccn1Cc1cnc(Cl)nc1)C(F)(F)F` [Compound 243, N-[1-((2-chloropyrimidin-5-yl)methyl)pyridin-2(1H)-ylidene]-2,2,2-trifluoroacetamide], for which the mortality at 50 ppm in data set [3] was at least 80%. For the same molecule, in data set [5], the “Insecticidal effects (mortality)” value came to 10. For the same molecule, in data set [2] (setting [9]), the pest or weed control at 0.05 mg/pot amounted to 100%. Further, the mortality at 0.05 mg/seedling in data set [2] (soil) was at least 80%. In data set [2] (setting [10]), the mortality at 0.05 mg/pot stood at 100%. Also, in data set [6] (72 h), the mortality at 500 ppm was at least 80%. In addition, the mortality at 500 ppm in data set [6] (setting [11]) was 100%. Moreover, in data set [7] (setting [12]), the mortality at 100 ppm is 100% and the mortality at 500 ppm was 100%. In data set [7] (in Brassica oleracea, 72 h), this molecule had a mortality at 100 ppm of at least 80% and a mortality at 500 ppm of at least 80%. Moreover, in data set [8] (setting [13]), the mortality at 0.5 mg/seedling worked out at 100%, the mortality at 2 mg/seedling amounted to 100% and the mortality at 20 mg/seedling stood at 100%. In data set [4] (setting [14]), the mortality at 1.25 ppm worked out at 80%, the mortality at 5 ppm came out at 100%, the mortality at 100 ppm turned out to be 100% and the mortality at 500 ppm was 100%. In data set [4] (in Cucumis sativus, 72 h), this molecule showed a mortality at 20 ppm of at least 80%, a mortality at 100 ppm of at least 80% and a mortality at 500 ppm of at least 80%.
